According to patent publication US9434725B2, “5-azaindazole compounds and methods of use” (priority 2012, dated 2016):
Read-outs that look alike come from different tables or passages of the source.

How the values were obtained:
BaF3 PIM1 cells = test: In vitro cell proliferation potency assay (Cell Titer Glo), BaF3 PIM1 cells; format: cell-based, murine; conditions: read-out: Prolif BaF3_PIM 1 (IC50)
Method: BaF3 parental line was obtained from the DSMZ repository. BaF3 lines transfected with PIM1 or PIM2 were generated. Mouse IL-3 was purchased from R&D Systems. G418 was purchased from Clontech. Media for BaF3 parental line contained RPMI, 10% FBS, 2 mM L-Glutamine, 2 ng/mL mIL-3. Media for BaF3 PIM1 & 2 lines contained RPMI, 10% FBS, 2 mM L-Glutamine, […]. Media for MM1.S (multiple myeloma cells) line contained RPMI, 10% FBS, 2 mM L-Glutamine.
BaF3, a murine interleukin-3 dependent pro-B cell line, parental cells, BaF3 PIM1 cells, BaF3 PIM2 cells, and MM1.S (multiple myeloma) cells were seeded at 2 k/well, 5 k/well, 5 k/well, and 10 k/well respectively, in a 384-well plate, at 45 μL/well. Test compound was added at 5 μL/well. BaF3 cells (parental and transfected) were incubated overnight, while MM1.S cells were incubated for 72 hours at 37° C., 5% CO2. CELL TITER GLO® Reagent (Promega) was added at 50 μL/well, the plates were incubated for 30 minutes, and their luminescence read on an HT Analyst. IC50/EC50 values for the test compound were calculated.

PIM2 = PIM2 (Homo sapiens (Human), UniProt Q9P1W9); test: Pim kinase binding activity, Caliper LC3000 microfluidic peptide phosphorylation assay, PIM2; format: biochemical; conditions: 10 μM ATP, 90 min, room temperature; read-out: PIM2 LC3K (KI)
PIM2, sequence (Q9P1W9 whole entry): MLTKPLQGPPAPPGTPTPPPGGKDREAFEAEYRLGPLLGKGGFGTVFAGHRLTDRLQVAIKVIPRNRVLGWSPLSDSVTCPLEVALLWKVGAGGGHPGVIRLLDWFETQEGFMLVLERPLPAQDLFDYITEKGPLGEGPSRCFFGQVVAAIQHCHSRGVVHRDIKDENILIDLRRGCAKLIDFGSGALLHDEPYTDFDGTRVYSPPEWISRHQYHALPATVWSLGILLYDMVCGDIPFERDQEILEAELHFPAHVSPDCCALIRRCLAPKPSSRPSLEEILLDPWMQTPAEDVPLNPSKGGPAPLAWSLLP
Summary of the method: (§1)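 Read-out is microfluidic electrophoretic separation of phosphorylated from unphosphorylated fluorescent Pim peptide, with Ki calculated from conversion. Reactions ran 90 min at room temperature in HEPES pH 7.2 containing MgCl2, Tween 20 and DTT, ended by EDTA-containing buffer.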

PIM1 = PIM1 (Homo sapiens (Human), UniProt P11309); test: biochemical; format: biochemical; conditions: 10 μM ATP, 90 min, room temperature; read-out: PIM1 LC3K (KI)
PIM1, sequence (P11309 whole entry): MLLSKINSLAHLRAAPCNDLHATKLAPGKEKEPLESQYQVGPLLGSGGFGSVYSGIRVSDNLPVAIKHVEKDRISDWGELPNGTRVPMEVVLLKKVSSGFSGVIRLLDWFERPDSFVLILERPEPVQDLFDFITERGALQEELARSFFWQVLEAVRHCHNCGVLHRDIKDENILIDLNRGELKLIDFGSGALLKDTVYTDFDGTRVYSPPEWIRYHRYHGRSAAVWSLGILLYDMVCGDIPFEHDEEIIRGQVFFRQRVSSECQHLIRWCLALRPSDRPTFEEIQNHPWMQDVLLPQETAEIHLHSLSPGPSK
Summary of the method: as §1

PIM3 = PIM3 (Homo sapiens (Human), UniProt Q86V86); test: Pim kinase binding activity, Caliper LC3000 microfluidic peptide phosphorylation assay, PIM3; format: biochemical; conditions: 10 μM ATP, 90 min, room temperature; read-out: PIM3 LC3K (KI)
Summary of the method: as §1

[1] = Mus musculus, BaF3, BaF3 cells transfected with PIM1, incubated overnight

Row | SMILES | IC50 (BaF3 PIM1 cells; BaF3 cells transfected with PIM1, incubated overnight) | Ki (PIM2) | Ki (PIM1) | Ki (PIM3) | IC50 (BaF3 PIM1 cells; [1])
1 | CCc1cncc(-c2cc3c(cn2)cnn3-c2cccc(N3CCNCC3)n2)c1 [Compound 104, 6-(5-ethylpyridin-3-yl)-1-(6-(piperazin-1-yl)pyridin-2-yl)-1H-pyrazolo[4,3-c]pyridine] |  |  | 0.119 nM | 0.077 nM | 1500 nM
2 | CCc1cncc(-c2cc3c(cn2)cnn3-c2ccc(Cl)c(N3CCC[C@H](N)C3)n2)c1 [Compound 117, (S)-1-(3-chloro-6-(6-(5-ethylpyridin-3-yl)-1H-pyrazolo[4,3-c]pyridin-1-yl)pyridin-2-yl)piperidin-3-amine] |  | 1.03 nM | 0.141 nM | 0.098 nM | 2900 nM
3 | COc1cncc(-c2cc3c(cn2)cnn3-c2cccc(N3CCNCC3)n2)n1 [Compound 130, 6-(6-methoxypyrazin-2-yl)-1-(6-piperazin-1-yl-2-pyridyl)pyrazolo[4,3-c]pyridine] |  | 1.87 nM | 0.113 nM | 0.068 nM | 1500 nM
4 | CC(C)(C)n1cc(-c2cc3c(cn2)cnn3-c2cccc(N3CCCNCC3)n2)cn1 [Compound 145, 1-(6-(1,4-Diazepan-1-yl)pyridin-2-yl)-6-(1-tert-butyl-1H-pyrazol-4-yl)-1H-pyrazolo[4,3-c]pyridine] |  | 10.5 nM | 0.362 nM | 0.636 nM | 2500 nM
5 | OCCn1cc(-c2cc3c(cn2)cnn3-c2cccc(N3CCCNCC3)n2)cn1 [Compound 152, 2-(4-(1-(6-(1,4-Diazepan-1-yl)pyridin-2-yl)-1H-pyrazolo[4,3-c]pyridin-6-yl)-1H-pyrazol-1-yl)ethanol] |  | 5.38 nM | 0.215 nM | 0.134 nM | 1500 nM
6 | c1cc(N2CCNCC2)nc(-n2ncc3cnc(-c4cncc(C5CC5)n4)cc32)c1 [Compound 165, 6-(6-cyclopropylpyrazin-2-yl)-1-(6-piperazin-1-yl-2-pyridyl)pyrazolo[4,3-c]pyridine] |  | 1.14 nM | 0.063 nM | 0.174 nM | 139 nM
7 | FC(F)(F)Cn1cc(-c2cc3c(cn2)cnn3-c2cncc(N3CCCNCC3)n2)cn1 [Compound 178, 1-(6-(1,4-Diazepan-1-yl)pyrazin-2-yl)-6-(1-(2,2,2-trifluoroethyl)-1H-pyrazol-4-yl)-1H-pyrazolo[4,3-c]pyridine] |  | 6.68 nM | 0.386 nM | 1.35 nM | 549 nM
8 | O[C@@H]1CNCCN(c2cccc(-n3ncc4cnc(-c5cnn(CC(F)(F)F)c5)cc43)n2)C1 [Compound 188, (R)-1-(6-(6-(1-(2,2,2-Trifluoroethyl)-1H-pyrazol-4-yl)-1H-pyrazolo[4,3-c]pyridin-1-yl)-pyridin-2-yl)-1,4-diazepan-6-ol] |  | 4.64 nM | 0.173 nM | 0.611 nM | 418 nM
9 | O[C@H]1CNCCN(c2cccc(-n3ncc4cnc(-c5cnn(CC(F)(F)F)c5)cc43)n2)C1 [Compound 189, (S)-1-(6-(6-(1-(2,2,2-Trifluoroethyl)-1H-pyrazol-4-yl)-1H-pyrazolo[4,3-c]pyridin-1-yl)-pyridin-2-yl)-1,4-diazepan-6-ol] |  | 0.373 nM | 0.038 nM | 0.089 nM | 181 nM
10 | Cc1cncc(-c2cc3c(cn2)cnn3-c2cccc(NC3CCNCC3)n2)n1 [Compound 190, 6-[6-(6-methylpyrazin-2-yl)pyrazolo[4,3-c]pyridin-1-yl]-N-(4-piperidyl)pyridin-2-amine] |  | 1.28 nM | 0.06 nM | 0.023 nM | 235 nM
11 | Cc1cncc(-c2cc3c(cn2)cnn3-c2cccc(N3C[C@@H](N)C[C@H](F)C3)n2)n1 [Compound 192, (3S,5S)-5-fluoro-1-[6-[6-(6-methylpyrazin-2-yl)pyrazolo[4,3-c]pyridin-1-yl]-2-pyridyl]piperidin-3-amine] |  | 3.35 nM | 0.428 nM | 0.21 nM | 1700 nM
12 | Cc1cncc(-c2cc3c(cn2)cnn3-c2ccc(C3CC3)c(N3CCCNCC3)n2)n1 [Compound 197, 1-(5-cyclopropyl-6-(1,4-diazepan-1-yl)pyridin-2-yl)-6-(6-methylpyrazin-2-yl)-1H-pyrazolo[4,3-c]pyridine] |  | 1.22 nM | 0.055 nM | 0.046 nM | 2200 nM
13 | Cc1cncc(-c2cc3c(cn2)cnn3-c2cccc(N3C[C@@H](N)C[C@@H](F)C3)n2)n1 [Compound 198, (3S,5R)-5-fluoro-1-[6-[6-(6-methylpyrazin-2-yl)pyrazolo[4,3-c]pyridin-1-yl]-2-pyridyl]piperidin-3-amine] |  | 2.55 nM | 0.117 nM | 0.089 nM | 1100 nM
14 | COc1ccc(-n2ncc3cnc(-c4cncc(C)n4)cc32)nc1N1CCNCC(O)C1 (stereo not drawn) [Compound 207, 1-(3-methoxy-6-(6-(6-methylpyrazin-2-yl)-1H-pyrazolo[4,3-c]pyridin-1-yl)pyridin-2-yl)-1,4-diazepan-6-ol] |  | 3.67 nM | 0.182 nM | 0.093 nM | 1500 nM

Further lines, results first:

Row | IC50 (BaF3 PIM1 cells; BaF3 cells transfected with PIM1, incubated overnight) | Ki (PIM2) | Ki (PIM1) | Ki (PIM3) | IC50 (BaF3 PIM1 cells; [1]) | SMILES
15 | 1200 nM | 0.596 nM | 0.046 nM | 0.035 nM |  | Cc1cncc(-c2cc3c(cn2)cnn3-c2cccc(N3CCNC(C)C3)n2)n1 (single isomer, unassigned) [Compound 193, 1-[6-(3-methylpiperazin-1-yl)-2-pyridyl]-6-(6-methylpyrazin-2-yl)pyrazolo[4,3-c]pyridine]
16 |  | 4.03 nM | 0.476 nM | 0.285 nM | 1500 nM | c1cc(N2CCNCC2)nc(-n2ncc3cnc(-c4cncs4)cc32)c1 [Compound 109, 5-[1-(6-piperazin-1-yl-2-pyridyl)pyrazolo[4,3-c]pyridin-6-yl]thiazole]
17 |  | 4.5 nM | 0.504 nM | 0.37 nM | 1700 nM | N[C@@H]1CCCN(c2cccc(-n3ncc4cnc(-c5cncs5)cc43)n2)C1 [Compound 110, (3R)-1-[6-(6-thiazol-5-ylpyrazolo[4,3-c]pyridin-1-yl)-2-pyridyl]piperidin-3-amine]
18 |  | 3.87 nM | 0.038 nM | 0.093 nM | 490 nM | c1cc(N2CCCNCC2)nc(-n2ncc3cnc(-c4cncc(C5CC5)c4)cc32)c1 [Compound 112]
19 |  | 3.48 nM | 0.71 nM | 0.14 nM | 804 nM | Cc1cc(-c2cc3c(cn2)cnn3-c2cccc(N3CCC[C@H](N)C3)n2)sn1 [Compound 124, (3S)-1-[6-[6-(3-methylisothiazol-5-yl)pyrazolo[4,3-c]pyridin-1-yl]-2-pyridyl]piperidin-3-amine]
20 |  | 4.56 nM | 0.867 nM | 0.155 nM | 3000 nM | CCn1cc(-c2cc3c(cn2)cnn3-c2cccc(N3CCC[C@H](N)C3)n2)cn1 [Compound 133, (3S)-1-[6-[6-(1-ethylpyrazol-4-yl)pyrazolo[4,3-c]pyridin-1-yl]-2-pyridyl]piperidin-3-amine]
21 |  | 0.499 nM | 0.159 nM | 0.038 nM | 2100 nM | Cc1cncc(-c2cc3c(cn2)cnn3-c2cccc(N3CCC[C@H](N)C3)n2)n1 [Compound 137, (3S)-1-[6-[6-(6-methylpyrazin-2-yl)pyrazolo[4,3-c]pyridin-1-yl]-2-pyridyl]piperidin-3-amine]
22 |  | 1.79 nM | 0.228 nM | 0.164 nM | 457 nM | Cc1cncc(-c2cc3c(cn2)cnn3-c2cccc(N3CCNC(C)C3)n2)n1 (stereo not drawn) [Compound 169, 1-[6-(3-methylpiperazin-1-yl)-2-pyridyl]-6-(6-methylpyrazin-2-yl)pyrazolo[4,3-c]pyridine]
23 |  | 1.47 nM | 0.034 nM | 0.048 nM | 111 nM | CCc1cncc(-c2cc3c(cn2)cnn3-c2cccc(N3CCNCC(O)C3)n2)n1 (stereo not drawn) [Compound 172, 1-[6-[6-(6-ethylpyrazin-2-yl)pyrazolo[4,3-c]pyridin-1-yl]-2-pyridyl]-1 4-diazepan-6-ol]
24 |  | 0.077 nM | 0.014 nM | 0.019 nM | 214 nM | Cc1cncc(-c2cc3c(cn2)cnn3-c2ccc(C3CC3)c(N3CCC[C@H](N)C3)n2)n1 [Compound 181, (S)-1-(3-cyclopropyl-6-(6-(6-methylpyrazin-2-yl)-1H-pyrazolo[4,3-c]pyridin-1-yl)pyridin-2-yl)piperidin-3-amine]
25 |  | 3.12 nM | 0.243 nM | 0.125 nM | 1500 nM | Cc1cncc(-c2cc3c(cn2)cnn3-c2cccc(N3CCC(N)CC3)n2)n1 [Compound 194, 1-[6-[6-(6-methylpyrazin-2-yl)pyrazolo[4,3-c]pyridin-1-yl]-2-pyridyl]piperidin-4-amine]
